Data on 1 compound can be found in patent US10351509B2, “Fenfluramine compositions and methods of preparing the same” (priority 2015, dated 2019).

The structures appear in SMILES notation. Where two headings read alike, the source gives them in different places. Marks after values point to notes of the source that are not given here.

The nature of one data set: Solution pH (water). The data set is classed as physicochemical.
Data set [1] is described as follows: Hygroscopicity by Dynamic Vapor Sorption (DVS). The data set is classed as physicochemical.
A short description of a further data set: Solid stability by HPLC. In kind it is physicochemical. To be noted: 8 weeks at 40° C., 60° C. and 80° C.; 7 days at 150° C.; all conditions.
A short description of data set [2]: Stability analysis of the salt (Form 1) under temperature/humidity and photostability conditions. In kind it is physicochemical. To be noted: one week at 40° C./0% RH, three weeks at 40° C./75% RH, and photostability conditions. From the text:
Fenfluramine HCl is developed as a single polymorph Form 1. A polymorphism and pre-formulation study has been conducted. Under a wide range of solvents and conditions crystalline material is produced of the same polymorph Form 1 based on a well-defined XRPD pattern and a consistent reproducible endotherm by DSC analysis. A summary of the chemophysical properties of Fenfluramine HCl from this study is provided below. Tabulated data includes example diffractograms, DSCs, and micrographs.

The nature of data set [3]: Holding at approximately 170° C., analysis by XRPD, DSC and 1H NMR. The note with it: held at approximately 170° C. for several hours. In kind it is physicochemical. The method, then: Holding Fenfluramine HCl at approximately 170° C. for several hours causes a melt and evaporation event to take place with recombination and cooling to provide a white solid.
For data set [4] the following is noted: for Parent remaining: 168 h.
A short description of data set [5]: pKa (water) of drug substance.
Data set [6] in a line: Solubility in organic solvents. To be noted: 25 °C, organic solvent or mixture.

Consider `CCNC(C)Cc1cccc(C(F)(F)F)c1.Cl` (racemic) [Fenfluramine HCl, N-ethyl-α-methyl-3-(trifluoromethyl)-benzeneethanamine hydrochloride (1:1)], for which, in the data set “Solution pH (water)”, the “Solution pH (water)” value was 6.69. Besides, the “Hygroscopicity (Dynamic Vapor Sorption (DVS))” value in data set [1] (@30% RH) is “@30% RH: ~0.05%”; in data set [1] (@60% RH), “@60% RH: ~0.07%”; in [1] (@90% RH), “@90% RH: ~0.20%^a)”. In “Solid stability by HPLC”, the “Solid Stability: new impurities >0.1% by HPLC” value is 150 °C All conditions, no new impurities >0.1% by. The “Stability of the salt: form and new impurities at 0.1% threshold” value in data set [2] is given as “input Form 1 has been maintained with no new impurities observed at 0.1% threshold”. Also, in data set [3], the “Change after melt and evaporation event (XRPD, DSC, 1H NMR)” value was “no change in chemical or physical form, purity, or dissociation”. The “Parent remaining after degradation” value in [4] (24 h) is recorded as 94.42%. Further, the values for the Parent remaining in data set [4] and in data set [4] (buffer) were 99.90 parent area % and 99.73 parent area %, respectively. Besides, the solubility in the data set “Aqueous solubility” (0.9% NaCl in water, 25 °C, saline or isotonic) is 23 mg/mL; in the data set “Aqueous solubility” (pH 1.73 buffer, 25 °C, pH 1.73, simulated gastric fluid) it was 25.3 mg/mL; in the data set “Aqueous solubility” (pH 1.73 buffer, 37 °C, pH 1.73, simulated gastric fluid), 53.7 mg/mL; in the data set “Aqueous solubility” (pH 3.43 buffer, 25 °C, pH 3.43, aqueous buffer) it was 29.5 mg/mL; in “Aqueous solubility” (pH 3.43 buffer, 37 °C, pH 3.43, aqueous buffer) it was 62 mg/mL; in the data set “Aqueous solubility” (pH 6.41 buffer, 25 °C, pH 6.41, aqueous buffer), 37.4 mg/mL. Further, the solubility in the data set “Aqueous solubility” (pH 6.41 buffer, 37 °C, pH 6.41, aqueous buffer) was 95.6 mg/mL; in “Aqueous solubility” (water, 25 °C, pH 6.69, water) it was 54.1 mg/mL; in “Aqueous solubility” (water, 37 °C, pH 6.69, water) it was 71.2 mg/mL; in data set [6] (dichloromethane), 30 to 35 mg/mL; in data set [6] (ethanol), 150 mg/mL; in data set [6] (ethyl acetate, tetrahydrofuran, toluene, acetonitrile) it was 1 to 5 mg/mL. In [5], this compound had a pKa of 10.2 to 10.4.

In general, solubility refers to the concentration that dissolves in the medium under given conditions. As a reminder, the pKa is the negative logarithm of the acid dissociation constant.
